Test results: US20260070945A1, “MACROCYCLIC IMMUNOMODULATORS” (Bristol-Myers Squibb Company, priority 2022, published 2026)
*1 amine or outer side, *2 acyl side, *3 side chain or, on linkers, in order; H or OH if unused. Where a SMILES comes first, the peptide text is derived from it. Bridges are numbered along the chain shown (N, C = ends). [ ]: non-standard residue; d: D form. The star is where a group is joined. ξ: configuration not given here. Trp(βS-Me) = C[C@@H](c1c[nH]c2ccccc12)[C@H](N)C(=O)O; Phe(4-CONH2) = NC(=O)c1ccc(C[C@H](N)C(=O)O)cc1; Phe(4-COOH) = N[C@@H](Cc1ccc(C(=O)O)cc1)C(=O)O; Bip = N[C@@H](Cc1ccc(-c2ccccc2)cc1)C(=O)O; NH(CH2)14COOH = O=C(O)CCCCCCCCCCCCCCN*; Phe(3-Me) = Cc1cccc(C[C@H](N)C(=O)O)c1; γGlu = O=C(O)[C@H](CCC(=O)[*:2])N[*:1]; hArg = N=C(N)NCCCC[C@H](N)C(=O)O; Cha = N[C@@H](CC1CCCCC1)C(=O)O; Ile(3ξ) = CCC(C)[C@H](N)C(=O)O; Carboxymethyl = O=C(O)C*; NMeA = CN[C@@H](C)C(=O)O; Orn = NCCC[C@H](N)C(=O)O; Aun = NCCCCCCCCCCC(=O)O; Dab = NCC[C@H](N)C(=O)O; AEEA = NCCOCCOCC(=O)O

biological target: T1, PD-1/PD-L1 interaction (PE-labeled human PD-L1-Ig binding to Jurkat cell line over-expressing human PD-1) (Homo sapiens, UniProt Q15116); assay: Jurkat-PD-1 Cell Binding High-Content Screening Assay (CBA); settings: Jurkat-hPD-1 cells, PE-labeled PD-L1-Ig 20 nM final; read-out: Jurkat HPD1 PDL1 IC50
T1 construct: expressed in transfected cells; host or cells: Jurkat
T1 sequence (Q15116 25-288): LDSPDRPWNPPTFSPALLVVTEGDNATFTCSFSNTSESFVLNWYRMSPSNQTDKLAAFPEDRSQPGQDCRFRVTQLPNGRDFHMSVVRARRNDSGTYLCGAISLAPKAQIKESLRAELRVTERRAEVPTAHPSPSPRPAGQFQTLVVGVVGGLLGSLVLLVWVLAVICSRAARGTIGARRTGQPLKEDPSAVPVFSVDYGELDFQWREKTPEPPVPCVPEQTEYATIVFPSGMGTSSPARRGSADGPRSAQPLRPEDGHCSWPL
Procedure, shortened: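 Jurkat-hPD-1 cells (8×10^3/well) in DMEM with 10% fetal calf serum were preincubated with compound for 2 h at 37 °C. PE-labeled PD-L1-Ig was then added at 20 nM final for 1 h. Cells were fixed in paraformaldehyde with Hoechst 33342, washed and imaged by high-content imaging.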

Row | SMILES | IC50 [nM]
1 | Cc1cccc(C[C@@H]2NC(=O)[C@H](CC(=O)O)NC(=O)[C@H](Cc3ccc(OCC(=O)O)cc3)NC(=O)[C@H](Cc3ccc(C(N)=O)cc3)NC(=O)CSC[C@@H](C(=O)N[C@@H](CCN)C(=O)NCCCCCCCCCCC(=O)O)NC(=O)[C@H](CO)NC(=O)[C@H](C(C)C)NC(=O)[C@H](CC3CCCCC3)NC(=O)[C@H](CCN)NC(=O)[C@@H](CC(C)C)NC(=O)[C@H](C)N(C)C(=O)[C@H](Cc3ccc(O)cc3)NC(=O)[C@H](Cc3ccc(-c4ccccc4)cc3)NC(=O)[C@H](Cc3ccc(OCC(=O)O)cc3)NC2=O)c1 [Example 1277] ({CH2CO}-[Phe(4-CONH2)]Y(Carboxymethyl)D[Phe(3-Me)]Y(Carboxymethyl)[Bip]Y[NMeA][dL][Dab][Cha]VSC[Dab][Aun]-OH; thioether N-14) | 24.6
2 | CCC(C)[C@@H]1NC(=O)[C@H](Cc2ccc(-c3ccccc3)cc2)NC(=O)[C@H](CC(C)C)NC(=O)[C@H](Cc2cccc(C)c2)NC(=O)[C@H](CC(=O)O)NC(=O)[C@H](Cc2ccc(OCC(=O)O)cc2)NC(=O)[C@H](Cc2ccc(OCC(=O)O)cc2)NC(=O)CSC[C@@H](C(=O)NCCOCCOCC(=O)N[C@@H](CCC(=O)NCCCCCCCCCCC(=O)O)C(=O)O)NC(=O)[C@H](CO)NC(=O)[C@H](C(C)C)NC(=O)[C@H](CC(C)C)NC(=O)[C@H](CCN)NC(=O)[C@@H](CC(C)C)NC(=O)[C@H](C)N(C)C1=O (stereo partly drawn) [Example 2043] ({CH2CO}-Y(Carboxymethyl)Y(Carboxymethyl)D[Phe(3-Me)]L[Bip][Ile(3ξ)][NMeA][dL][Dab]LVSC[AEEA][γGlu][Aun]-OH; thioether N-14) | 17.4
3 | CC(C)C[C@H]1NC(=O)[C@H](C)N(C)C(=O)[C@H](Cc2ccc(OCC(=O)O)cc2)NC(=O)[C@H](Cc2ccc(-c3ccccc3)cc2)NC(=O)[C@H](Cc2ccc(OCC(=O)O)cc2)NC(=O)[C@H]([C@@H](C)c2c[nH]c3ccccc23)NC(=O)[C@H](CC(=O)O)NC(=O)[C@H](Cc2ccc(OCC(=O)O)cc2)NC(=O)[C@H](CCCNC(=N)N)NC(=O)CSC[C@@H](C(=O)N[C@@H](CCN)C(=O)NCCCCCCCCCCC(=O)O)NC(=O)[C@H]([C@@H](C)O)NC(=O)[C@H](C(C)C)NC(=O)[C@H](CC2CCCCC2)NC(=O)[C@H](CCN)NC1=O [Example 1273] ({CH2CO}-RY(Carboxymethyl)D[Trp(βS-Me)]Y(Carboxymethyl)[Bip]Y(Carboxymethyl)[NMeA][dL][Dab][Cha]VTC[Dab][Aun]-OH; thioether N-14) | 327
4 | CC(C)C[C@@H]1NC(=O)[C@H](Cc2c[nH]c3ccccc23)NC(=O)[C@H](CC(=O)O)NC(=O)[C@H](Cc2ccc(C(=O)O)cc2)NC(=O)[C@H](CCCCNC(=N)N)NC(=O)CSC[C@@H](C(=O)N[C@@H](C)C(=O)N[C@@H](CCN)C(=O)NCCCCCCCCCCCCCCC(=O)O)NC(=O)[C@H](CO)NC(=O)[C@H](C(C)C)NC(=O)[C@H](CC2CCCCC2)NC(=O)[C@H](CCN)NC(=O)[C@@H](CC(C)C)NC(=O)[C@H](C)N(C)C(=O)[C@H](C(C)C)NC(=O)[C@H](Cc2ccc(-c3ccccc3)cc2)NC1=O [Example 2001] ({CH2CO}-[hArg][Phe(4-COOH)]DWL[Bip]V[NMeA][dL][Dab][Cha]VSCA[Dab]-{NH(CH2)14COOH}; thioether N-14) | 123
5 | Cc1cccc(C[C@@H]2NC(=O)[C@H](CC(=O)O)NC(=O)[C@H](Cc3ccc(OCC(=O)O)cc3)NC(=O)[C@H]([C@@H](C)O)NC(=O)CSC[C@@H](C(=O)N[C@@H](CCCN)C(=O)NCCOCCOCC(=O)NCCCCCCCCCCC(=O)O)NC(=O)[C@H](CO)NC(=O)[C@H](C(C)C)NC(=O)[C@H](CC3CCCCC3)NC(=O)[C@H](CC(N)=O)NC(=O)[C@@H](CC(C)C)NC(=O)[C@H](C)N(C)C(=O)[C@H](Cc3ccc(OCC(=O)O)cc3)NC(=O)[C@H](Cc3ccc(-c4ccccc4)cc3)NC(=O)[C@H](Cc3ccc(OCC(=O)O)cc3)NC2=O)c1 [Example 1367] ({CH2CO}-TY(Carboxymethyl)D[Phe(3-Me)]Y(Carboxymethyl)[Bip]Y(Carboxymethyl)[NMeA][dL]N[Cha]VSC[Orn][AEEA][Aun]-OH; thioether N-14) | 55.6
